Like-named read-outs stand apart in the source and are kept apart here.
Experiments:
Assay type in all cases: cell-based, Plasmodium falciparum
[1] = system: P. falciparum Dd2 Cytb G131S; experiment: SYBR Green ABS proliferation assay, NCGC00374598 selected clone C11; conditions: Plasmodium falciparum
Summary of the method: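 Asexual blood-stage proliferation of cytochrome b-mutant Dd2 clones after 72 h compound exposure at 37 °C in low-oxygen gas, quantified as control-normalized SYBR Green-I fluorescence; differences tested by two-sided t-test.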

[2] = system: P. falciparum Dd2 Cytb V259L; experiment: SYBR Green ABS proliferation assay, NCGC00473217 selected clone F06; conditions: Plasmodium falciparum
Description: (§1) As resistance selection studies implicated the parasite cytochrome bc1 complex in mediating reduced parasite susceptibility to both NCGC00473217 and NCGC00374598, we leveraged these drug-selected parasites to test for altered drug response to a panel of antimalarial compounds.
(§2) The P. falciparum parasite Dd2 line was cultured in vitro using standard conditions. […] Tissue culture flasks and assay plates were incubated at 37 °C under a gas mixture of 5% CO2, 5% O2 and 90% N2. […] Significant differences were assessed using two-sided Student’s t-tests. All HTS assays were stopped and read at 72 h. Percent response values represent relative growth as judged by SYBR Green-I fluorescence intensity values normalized to controls.
(§3) Fresh uninfected RBCs (0.5% hematocrit) were added on day 7 and media was changed every other day. […] Resistant parasites were maintained under drug media at a volume of 50 mL until a high parasitemia (> 5%) was achieved. Aliquots of the bulk resistant cultures were frozen in cryovials before cloning by limiting dilution in 96-well plates (seeded at 0.25 or 0.5 parasites/well)[70]. After 3 weeks of cloning, we screened for positive wells by flow cytometry with SYBR Green-stained cells. […] Parasites were harvested by saponin lysis at the trophozoite stage and genomic DNA was extracted using the QIAamp DNA Blood Midi Kit (Qiagen, Germantown, MD)[71].

[3] = system: P. falciparum Dd2 Cytb A122D; experiment: SYBR Green ABS proliferation assay, NCGC00473217 selected clone F12; conditions: Plasmodium falciparum
Description: as §1, §2, §3

[4] = system: P. falciparum Dd2 Cytb F123L; experiment: SYBR Green ABS proliferation assay, NCGC00473217 selected clone G08; conditions: Plasmodium falciparum
Description: as §1, §2, §3

[5] = system: P. falciparum Dd2 (clone B2) asexual blood stage parasites; experiment: P. falciparum Dd2 asexual blood stage SYBR Green-I 72 h proliferation assay (qHTS); conditions: Plasmodium falciparum, DD2, Dd2 parental; Hill fit, averaged from three independent replicates; top concentration 29 µM; read-out: Average AC50 (Log[M]), Dd2 (converted)
[6] = DD2, cytochrome b mutant line, second value triple, c6, […], read-out: log AC50, mean (converted)
[7] = DD2, cytochrome b mutant line, third value triple, c9, […], read-out: log AC50, mean (converted)
[8] = DD2, cytochrome b mutant line, fourth value triple, c12, […], read-out: log AC50, mean (converted)
[9] = DD2, cytochrome b mutant line, fifth value triple, c15, […], read-out: log AC50, mean (converted)
[10] = DD2, […], averaged from three independent replicates, top concentration 29 µM, read-out: Average AC50 (Log[M]), NCGC00374598 clone C11 (Cytb G131S) (converted)
[11] = DD2, […], averaged from three independent replicates, top concentration 29 µM, read-out: Average AC50 (Log[M]), NCGC00473217 clone F06 (Cytb V259L) (converted)
[12] = DD2, […], averaged from three independent replicates, top concentration 29 µM, read-out: Average AC50 (Log[M]), NCGC00473217 clone F12 (Cytb A122D) (converted)
[13] = DD2, […], averaged from three independent replicates, top concentration 29 µM, read-out: Average AC50 (Log[M]), NCGC00473217 clone G08 (Cytb F123L) (converted)

SMILES	AC50 [1, 6]	AC50 [2, 7]	AC50 [3, 8]	AC50 [4, 9]	AC50 [1, 10]	AC50 [2, 11]	AC50 [3, 12]	AC50 [4, 13]	AC50 [5]
CCCN1C(CC(C)C)=N[S+](=O)([O-])c2cc(NC(=O)c3cccc(C(F)(F)F)c3)ccc21 [NCGC00531777-01]	7.1e-07 M	1.36e-06 M	7.52e-06 M	2.24e-09 M	–	–	–	–	–
CCCN1C(CC2CCCCC2)=N[S+](=O)([O-])c2cc(NC(=O)c3ccc(F)cc3)ccc21 [NCGC00532335-01]	8.61e-07 M	5.32e-06 M	3.3e-06 M	2.82e-07 M	–	–	–	–	–
CCCN1C(CC(C)C)=N[S+](=O)([O-])c2cc(NC(=O)c3ccc(SC)cc3)ccc21 [NCGC00531764-01]	7.96e-08 M	2.12e-06 M	8.93e-06 M	1e-05 M	–	–	–	–	–
CCCN1C(CC2CCOCC2)=N[S+](=O)([O-])c2cc(NC(=O)c3ccc(F)cc3)ccc21 [NCGC00537661-01]	2e-07 M	5.02e-06 M	5.86e-06 M	4.84e-06 M	–	–	–	–	–
CCc1nc2c(c(-c3ccc(Cl)cc3)n1)CCN(Cc1ccc(NC(C)=O)cc1)CC2 [NCGC00476919-01]	1.28e-05 M	1.5e-05 M	1.14e-05 M	2.03e-06 M	–	–	–	–	–
CCCN1C(CC(C)C)=N[S+](=O)([O-])c2cc(N(Cc3cccs3)Cc3cccs3)ccc21 [NCGC00531812-01]	6.32e-06 M	3.56e-06 M	3.99e-06 M	4.66e-06 M	–	–	–	–	–
CCCN1C(CC(F)(F)F)=N[S+](=O)([O-])c2cc(NC(=O)c3cccs3)ccc21 [NCGC00532340-01]	6.32e-06 M	2e-06 M	7.1e-06 M	7.1e-06 M	–	–	–	–	–
CCCN1C(CC(C)C)=N[S+](=O)([O-])c2cc(NC(=O)Nc3cccs3)ccc21 [NCGC00537523-01]	2.67e-06 M	5.22e-06 M	9.29e-06 M	9.66e-06 M	–	–	–	–	–
CC(C)c1nc2c(c(-c3ccc(O)cc3)n1)CCN(C(=O)c1cccc(Cl)c1)CC2 [NCGC00480331-01]	1.74e-05 M	1.81e-05 M	1.68e-05 M	1.19e-05 M	–	–	–	–	–
COc1ccc(-c2nc(C(C)C)nc3c2CCN(C(=O)Cc2ccc(F)cc2)CC3)cc1 [NCGC00479517-01]	1.5e-05 M	1.88e-05 M	1.68e-05 M	1.06e-05 M	–	–	–	–	–
CC(C)c1nc2c(c(-c3ccc(Cl)cc3)n1)CCN(C(=O)c1ccc(C(F)(F)F)cc1)CC2 [NCGC00374584-01]	6.93e-06 M	7.5e-06 M	7.5e-06 M	8.41e-06 M	–	–	–	–	–
CCCN1C(CC(C)C)=N[S+](=O)([O-])c2cc(NC(=O)c3ccc(F)c(Cl)c3)ccc21 [NCGC00531769-01]	2.82e-06 M	3.7e-06 M	7.38e-06 M	3.99e-07 M	–	–	–	–	–
COc1ccc(CN2CCc3nc(C(C)C)nc(-c4ccc(O)cc4)c3CC2)cc1 [NCGC00480318-01]	5.11e-06 M	9.08e-06 M	7.78e-06 M	9.08e-06 M	–	–	–	–	–
CCCN1C(CC(C)C)=N[S+](=O)([O-])c2cc(NC(=O)c3ccc4c(c3)OCCO4)ccc21 [NCGC00531778-01]	2.24e-07 M	5.22e-06 M	1.31e-05 M	1.31e-05 M	–	–	–	–	–
COc1ccc(-c2nc(C3CC3)nc3c2CCN(S(=O)(=O)c2ccccc2)CC3)cc1 [NCGC00374642-01]	1.33e-05 M	1.61e-05 M	1.44e-05 M	1.61e-05 M	–	–	–	–	–
CCCN1C(CC(C)C)=N[S+](=O)([O-])c2cc(NC(C)=O)ccc21 [NCGC00521093-01]	–	–	–	–	2e-05 M	8.93e-06 M	1.04e-05 M	7.96e-06 M	–
CCCN1C(CC(C)C)=N[S+](=O)([O-])c2cc(NC(=O)c3ccc(Br)c(F)c3)ccc21 [NCGC00531761-01]	1.12e-06 M	3.36e-06 M	1e-06 M	7.96e-08 M	–	–	–	–	–
CCCN1C(CC2CCCCC2)=N[S+](=O)([O-])c2cc(NC(=O)c3cccs3)ccc21 [NCGC00532404-01]	9.66e-07 M	1.5e-06 M	1.53e-06 M	3.99e-06 M	–	–	–	–	–
CCCN1C(COC)=N[S+](=O)([O-])c2cc(NC(=O)c3cccs3)ccc21 [NCGC00532347-01]	1.78e-06 M	8.93e-06 M	8.93e-06 M	7.96e-09 M	–	–	–	–	–
COc1cc(OC)c(OC)cc1CN1CCc2nc(N(C)C)[nH]c(=O)c2CC1 [NCGC00440589-01]	2.66e-06 M	2.76e-06 M	1.61e-06 M	2.03e-06 M	–	–	–	–	–
CCCN1C(CC(C)C)=N[S+](=O)([O-])c2cc(NC(=O)c3ccc(F)c(Br)c3)ccc21 [NCGC00531767-01]	2.08e-06 M	1.06e-06 M	8.61e-06 M	6.32e-06 M	–	–	–	–	–
CCCN1C(CC(C)C)=N[S+](=O)([O-])c2cc(NC(=O)c3c(Cl)cccc3Cl)ccc21 [NCGC00531779-01]	1.85e-06 M	1.19e-05 M	1.59e-05 M	1.53e-05 M	–	–	–	–	–
COc1ccc(-c2nc(C(C)C)nc3c2CCN(C(=O)c2cccc(Cl)c2)CC3)cc1 [NCGC00479504-01]	1.55e-05 M	1.68e-05 M	1.61e-05 M	1.19e-05 M	–	–	–	–	–
CCCN1C(CC(C)C)=N[S+](=O)([O-])c2cc(NC(=O)c3ccccc3OC)ccc21 [NCGC00531762-01]	1e-06 M	2e-06 M	1.12e-06 M	2.52e-06 M	–	–	–	–	–
CCCN1C(CC(C)C)=N[S+](=O)([O-])c2cc(NC(=O)c3cccnn3)ccc21 [NCGC00521144-01]	–	–	–	–	2e-05 M	2.82e-06 M	2.67e-06 M	1.12e-05 M	–
CCCN1C(CC(C)C)=N[S+](=O)([O-])c2cc(NC(=O)Cc3cccs3)ccc21 [NCGC00531815-01]	1e-05 M	7.67e-06 M	5.22e-06 M	5.64e-06 M	–	–	–	–	–
CCCN1C(CC(C)C)=N[S+](=O)([O-])c2cc(N[S+](=O)([O-])c3cccs3)ccc21 [NCGC00521163-01]	–	–	–	–	–	1.59e-05 M	8.93e-06 M	1.12e-05 M	1.78e-05 M
COc1ccc(-c2nc(C(C)C)nc3c2CCN(C(=O)c2ccccc2Cl)CC3)cc1 [NCGC00479503-01]	2.28e-06 M	1.58e-05 M	1.28e-05 M	1.23e-05 M	–	–	–	–	–
O=C(c1cccc(Cl)c1)N1CCc2nc(C3CC3)nc(-c3ccc(O)cc3)c2CC1 [NCGC00480367-01]	1.06e-05 M	2.66e-06 M	1.55e-05 M	1.28e-06 M	–	–	–	–	–

— publication PMC7822874, “Chemoprotective antimalarials identified through quantitative high-throughput screening of Plasmodium blood and liver stage parasites” (Scientific Reports, 2021)
